# Laboratory results from patent US20140100241A1 (priority 2007, published 2014).
# Like-named read-outs stand apart in the source and are kept apart here.
# How the values were obtained:
# [1] = cited from earlier work
# [2] = test system: patients with opiate dependence; assay: Clinical detoxification of opiate-dependent patients with decreasing buprenorphine troche doses (microdose protocol)
smiles,measurement,setting,value
"COC12CCC3(CC1C(C)(O)C(C)(C)C)C1Cc4ccc(O)c5c4C3(CCN1CC1CC1)C2O5 [Buprenorphine, (2S)-2-[(−)-(5R,6R,7R,14S)-9α-cyclopropylmethyl-4,5-epoxy-6,14-ethanomorphinan-7-yl]-3-hydroxy-6-methoxy-3,3-dimethylbutan-2-ol]",mean half-life,[1]; in vivo,35 to 37 h
same,elimination half-life (mean),[1]; mean,37 h
same,first-pass metabolism,[1]; oral administration,very high
same,elimination half-life,[1]; range,20 to 73 h
same,mean half-life,[1]; taken sublingually,35 to 37 h
same,withdrawal symptoms after dose reduction,"[2]; 2.0 mg dose reduction, experienced or chronic user of narcotic type medications",significant withdrawal symptoms
same,time to return of withdrawal symptoms,[2]; cut-off of 2.0 mg,≤ 24 h
same,treatment outcome,[2]; fractional dose of 1.5 mg after a final 3.0 mg dose,unsuccessful
same,patients transitioned safely and in a symptomless manner from buprenorphine to the blocker Naltrexone,"[2]; increased number of sub 0.1 mg doses, treatment three or more months",~100%
same,completion rate (completion means a narcotic free state),"[2]; microdose methods over an extended period, months rather than days or weeks",approximately 96%
same,duration of withdrawal symptoms,"[2]; previous treatment regimens, doses 8.0 to 3.0 mg",three to five days
same,withdrawal symptoms reported by patients,[2]; serial doses of 0.25 mg,"perceptible and, in some cases, intolerable withdrawal symptoms"
same,success rate,[2]; when taken to completion of the dose reduction schedule,greater than 90%
CN1C(=O)CN=C(c2ccccc2)c2cc(Cl)ccc21 [Diazepam],observed effect in the early phase of withdrawal,[2]; outpatients,too dis-inhibiting
O=C1CC[C@@]2(O)[C@H]3Cc4ccc(O)c5c4[C@@]2(CCN3CC2CC2)[C@H]1O5 [Naltrexone],return of withdrawal symptoms after the end of buprenorphine treatment,[2]; Naltrexone administered at 12.5 mg,up to five days
